Results as given in paper PMC8199500, “Novel Bis- and Mono-Pyrrolo[2,3-d]pyrimidine and Purine Derivatives: Synthesis, Computational Analysis and Antiproliferative Evaluation” (Molecules, 2021).
Like-named read-outs stand apart in the source and are kept apart here. Blank lines part the entries; values can stand above or below the molecule they belong to.

Key:
[1] = system: lung adenocarcinoma (A549) cells; test: MTT proliferation assay, A549 cells; type: cell-based, human
Protocol: (§1) Human carcinoma cell lines A549 (lung carcinoma), HeLa (cervical carcinoma), SW620 (colorectal adenocarcinoma, metastatic) and CFPAC-1 (pancreatic cancer, derived from metastatic: liver), and normal human foreskin (HFF-1) fibroblasts were obtained from the American Type Culture Collection (ATCC, Manassas, VA, USA). Cells were cultured in humidified atmosphere at 37 °C with 5% CO2. As growth medium, Dulbecco′s modified Eagle medium (DMEM) was used with the addition of fetal bovine serum (10%), L-glutamine (2 mM) and antibiotics: streptomycin ([…]) and penicillin (100 U/mL).
(§2) Cells were seeded onto 96-well microtiter plates at a seeding density of 3000 cells/well for carcinoma cell lines, and 5000 cells/well for normal human fibroblasts. The next day, cells were treated with test agents in five different concentrations (0.01–100 µM) and further incubated for 72 h. […] Following 72 h incubation, the MTT assay was performed and measured absorbances were transformed into percentage of cell growth as described previously. Results were obtained from three independent experiments. IC50 values were calculated using linear regression analysis and results were statistically analyzed by ANOVA, Tukey post-hoc test (p < 0.05).

[2] = system: cervical carcinoma (HeLa) cells; test: MTT proliferation assay, HeLa cells; type: cell-based, human; settings: 72 h incubation
Protocol: as §1, §2

[3] = system: ductal pancreatic adenocarcinoma (CFPAC-1) cells; test: MTT proliferation assay, CFPAC-1 cells; type: cell-based, human
Protocol: as §1, §2

[4] = system: metastatic colorectal adenocarcinoma (SW620) cells; test: MTT proliferation assay, SW620 cells; type: cell-based, human
Protocol: as §1, §2

[5] = system: normal human foreskin fibroblasts (HFF-1); test: MTT proliferation assay, normal fibroblasts HFF-1; type: cell-based; settings: 72 h incubation
Protocol: as §1, §2

CFPAC-1 cells = test: Annexin V assay for apoptosis detection; type: cell-based, human; settings: for viability at 3.95 µM / viability at 1.58 µM: Homo sapiens, CFPAC-1, read-out: viable cells (Ann−/PI−)
Protocol: Cells were seeded into 8-well chambers (Lab-tek II Chamber Slides, Thermo Fisher Scientific, Waltham, MA, USA) in a concentration of 2 × 10^4 cells per well and treated with 2 × IC50 and 5 × IC50 concentrations of selected compounds for 48 and 72 h. Staining of the cells was performed by Annexin-V-FITC Staining kit (Santa Cruz Biotechnology, Dallas, TX, USA) according to the manufacturer′s instructions. Cells were visualised by fluorescent microscope (Olympus, Tokyo, Japan) at magnification of 40×.

[6] = system: human tumor cell lines (A549, HeLa, CFPAC-1, SW620); test: MTT proliferation assay, all evaluated tumor cell lines; type: cell-based; settings: read-out: antiproliferative activity (IC50) over the evaluated tumor cell lines
Protocol: as §1, §2

[7] = Homo sapiens, A549, 72 h incubation
[8] = Homo sapiens, CFPAC-1, 72 h incubation
[9] = Homo sapiens, SW-620, 72 h incubation
[10] = 48 h treatment, 1.85 µM (2 × IC50)
[11] = 48 h treatment, 3.95 µM (5 × IC50)
[12] = 72 h treatment, 1.85 µM (2 × IC50)
[13] = 72 h treatment, 3.95 µM (5 × IC50)

- IC50 [1, 7]: 6.9 ± 1.1 µM
- IC50 ([2]; Homo sapiens, HeLa): 0.98 ± 0.44 µM
- IC50 [3, 8]: 0.79 ± 0.03 µM
- IC50 [4, 9]: 8 ± 1.8 µM
Molecule: C#CCOc1ccc(-c2ccc(OCc3cn(CCn4ccc5c(Cl)ncnc54)nn3)cc2)cc1 [5f, 4-chloro-7-{2-[4-(((4′-(prop-2-yn-1-yloxy)-[1,1′-biphenyl]-4-yl)oxy)methyl)-1H-1,2,3-triazol-1-yl]ethyl}-7H-pyrrolo[2,3-d]pyrimidine]
- IC50 [5]: 0.62 µM
- mode of cell death in CFPAC-1 cells (CFPAC-1 cells; 48 and 72 h, 2 × IC50 and 5 × IC50): induces apoptosis and primary necrosis in CFPAC-1 cells in a concentration- and time-dependent manner
- early apoptotic cells (Ann+) (CFPAC-1 cells; [10]): 11.76 ± 3.58%
- late apoptotic/primary necrotic cells (Ann+/PI+) (CFPAC-1 cells; [10]): 5.88 ± 1.44%
- secondary necrotic cells (PI+) (CFPAC-1 cells; [10]): 2.72 ± 0.56%
- early apoptotic cells (Ann+) (CFPAC-1 cells; [11]): 21.21 ± 1.35%
- late apoptotic/primary necrotic cells (Ann+/PI+) (CFPAC-1 cells; [11]): 6.56 ± 0.24%
- secondary necrotic cells (PI+) (CFPAC-1 cells; [11]): 4.05 ± 1.22%
- decrease in cell viability vs control (CFPAC-1 cells; 48 h treatment, 5 × IC50): 28.4%
- increase in the percentage of cells in early apoptosis vs control (CFPAC-1 cells; 48 h treatment, 5 × IC50): 21.21%
- early apoptotic cells (Ann+) (CFPAC-1 cells; [12]): 30.36 ± 1.49%
- late apoptotic/primary necrotic cells (Ann+/PI+) (CFPAC-1 cells; [12]): 10.71 ± 4.89%
- secondary necrotic cells (PI+) (CFPAC-1 cells; [12]): 2.68 ± 0.37%
- early apoptotic cells (Ann+) (CFPAC-1 cells; [13]): 39.63 ± 8.54%
- late apoptotic/primary necrotic cells (Ann+/PI+) (CFPAC-1 cells; [13]): 26.14 ± 2.57%
- secondary necrotic cells (PI+) (CFPAC-1 cells; [13]): 6.3 ± 2.45%
- increase in early apoptotic cells vs control (CFPAC-1 cells; 72 h treatment, 2 × IC50): 24.08%
- increase in early apoptotic cells vs control (CFPAC-1 cells; 72 h treatment, 5 × IC50): 33.35%
- rise in late apoptotic/primary necrotic cells vs control (CFPAC-1 cells; 72 h treatment, 5 × IC50): 26.14%
- viability at 3.95 µM (CFPAC-1 cells; [11]): 68.2 ± 0.94%
- viability at 1.58 µM (CFPAC-1 cells; 48 h treatment): 79.6 ± 2.57%
- viability at 3.95 µM (CFPAC-1 cells; [13]): 27.9 ± 3.23%
- viability at 1.58 µM (CFPAC-1 cells; 72 h treatment): 56.2 ± 6.56%

- IC50 [1, 7]: 53.5 ± 8 µM
- IC50 ([2]; Homo sapiens, HeLa): 16.2 ± 0.05 µM
- IC50 [3, 8]: 9.1 ± 1.3 µM
- IC50 [4, 9]: 43.5 ± 4.4 µM
Molecule: c1nc(N2CCCCC2)c2ncn(CCn3cc(COc4ccc(OCc5cn(CCn6cnc7c(N8CCCCC8)ncnc76)nn5)cc4)nn3)c2n1 [9a, 1,4-Bis{[1-(2-(6-(piperidin-1-yl)-9H-purin-9-yl)ethyl)-1H-1,2,3-triazol-4-yl]methoxy}benzene]
- IC50 [5]: 0.76 µM

- IC50 [1, 7]: 12.3 ± 3.4 µM
- IC50 ([2]; Homo sapiens, HeLa): 3.8 ± 0.81 µM
- IC50 [3, 8]: 8.1 ± 1.3 µM
- IC50 [4, 9]: 5.2 ± 2.2 µM
Molecule: c1nc(N2CCCCC2)c2ncn(CCn3cc(COc4ccc(-c5ccc(OCc6cn(CCn7cnc8c(N9CCCCC9)ncnc87)nn6)cc5)cc4)nn3)c2n1 [9b, 4,4′-Bis((1-(2-(6-(piperidin-1-yl)-9H-purin-9-yl)ethyl)-1H-1,2,3-triazol-4-yl)methoxy)-1,1′-biphenyl]
- IC50 [5]: 0.79 µM

The remaining lines, values behind:

Molecule: c1nc(N2CCCCC2)c2ccn(CCn3cc(CCCc4cn(CCn5ccc6c(N7CCCCC7)ncnc65)nn4)nn3)c2n1 [6c, 1,3-Bis{1-[2-(4-(piperidin-1-yl)-7H-pyrrolo[2,3-d]pyrimidin-7-yl)ethyl]-1H-1,2,3-triazol-4-yl}propane]
- IC50 [1, 7]: 59.3 ± 4.9 µM
- IC50 ([2]; Homo sapiens, HeLa): 33.7 ± 8.9 µM
- IC50 [3, 8]: 48.7 ± 1.5 µM
- IC50 [4, 9]: 65.2 ± 4.8 µM
- IC50 ([6]; Homo sapiens): 28.2 to 65.2 µM
- melting point: 145 to 147 °C

Molecule: c1nc(N2CCCC2)c2ccn(CCn3cc(COc4ccc(OCc5cn(CCn6ccc7c(N8CCCC8)ncnc76)nn5)cc4)nn3)c2n1 [7a, 1,4-Bis{[1-(2-(4-(pyrrolidin-1-yl)-7H-pyrrolo[2,3-d]pyrimidin-7-yl)ethyl)-1H-1,2,3-triazol-4-yl]methoxy}benzene]
- IC50 [1, 7]: 49.3 ± 6.4 µM
- IC50 ([2]; Homo sapiens, HeLa): 6.4 ± 0.35 µM
- IC50 [3, 8]: 25.8 ± 0.98 µM
- IC50 [4, 9]: 78 ± 2.1 µM
- IC50 [5]: 0.81 µM
- melting point: 193 to 195 °C

Molecule: C#CCOc1ccc(-c2ccc(OCc3cn(CCn4cnc5c(N6CCCCC6)ncnc54)nn3)cc2)cc1 [9f, 6-(piperidin-1-yl)-9-{2-[4-(((4′-(prop-2-yn-1-yloxy)-[1,1′-biphenyl]-4-yl)oxy)methyl)-1H-1,2,3-triazol-1-yl]ethyl}-9H-purine]
- IC50 [1, 7]: 9.3 ± 0.1 µM
- IC50 ([2]; Homo sapiens, HeLa): 3.9 ± 0.69 µM
- IC50 [3, 8]: 2.9 ± 1 µM
- IC50 [4, 9]: 23.2 ± 3.2 µM
- IC50 [5]: 4.3 µM
- melting point: 221 to 225 °C

Molecule: {1-[2-(4-(Piperidin-1-yl)-7H-pyrrolo[2,3-d]pyrimidin-7-yl)ethyl]-1H-1,2,3-triazol-4-yl}methyl ether [6d]
- IC50 ([1]; 72 h incubation): 51.9 ± 3 µM
- IC50 [2]: 28.2 ± 9 µM
- IC50 ([3]; 72 h incubation): 37.9 ± 3.7 µM
- IC50 ([4]; 72 h incubation): 45.5 ± 3.3 µM
- IC50 [6]: 28.2 to 65.2 µM
